The target in assay [1] is T1, S1PR2 (Homo sapiens, UniProt O95136).
T1 construct: expressed in transfected cells
Briefly: S1PR2 binding assay (competition with radioactively labeled S1P, SpA). As to conditions: membranes from stable cell line over expressing S1PR2, SpA beads; read-out: S1P2 EC50 (nM), S1PR2 binding EC50. Put shortly: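 Competition with [3H]S1P for membranes from a stable S1PR2-overexpressing cell line, 20 μg/well, captured on PVT-WGA SPA beads, in 20 mM Tris pH 7.5, 10 mM MgCl2, 100 mM NaCl, 0.4% fatty-acid-free BSA, 1 mM Na3VO4. 2 h at room temperature, then centrifugation and scintillation counting.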

The test system of assay [2] is HFL-1 cells. Put plainly: IL8 assay in the presence of Human Serum Albumin. The settings on record: HFL1, read-out: HSA IL8 EC50.
Assay [3] relates to HFL-1 cells. Briefly: IL-8 production assay (S1P induced IL-8). It is filed as cell-based. The settings on record: Homo sapiens, HFL1; S1P (1 μM) induced IL-8 in HFL-1 cells, starvation medium without HSA; read-out: IL8 EC50. The method, boiled down:
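HFL-1 human fetal lung fibroblasts were starved in F12K/1% FBS, then given compound for 1 h (10-point, 1/3 dilution, 30 μM top, 0.3% DMSO final). S1P was added at 1 μM final for 16–24 h at 37 °C, and secreted IL-8 in supernatant quantified by ELISA.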

In assay [4] the target is T2, human GPCR sphingosine 1-phosphate receptor 2 (Homo sapiens, UniProt O95136).
T2 construct: host or cells: CHO
T2 sequence (O95136 whole entry): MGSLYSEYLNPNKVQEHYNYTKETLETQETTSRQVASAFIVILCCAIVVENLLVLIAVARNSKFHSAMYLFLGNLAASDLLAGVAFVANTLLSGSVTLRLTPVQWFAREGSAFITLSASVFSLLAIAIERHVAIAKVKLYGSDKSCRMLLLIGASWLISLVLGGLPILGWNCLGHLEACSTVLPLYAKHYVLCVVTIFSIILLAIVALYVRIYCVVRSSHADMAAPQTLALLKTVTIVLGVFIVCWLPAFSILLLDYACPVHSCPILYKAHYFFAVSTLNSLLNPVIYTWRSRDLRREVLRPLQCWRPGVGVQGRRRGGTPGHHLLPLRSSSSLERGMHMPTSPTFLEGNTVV
Put plainly: S1PR2 antagonist Ca2+ flux assay. The settings on record: antagonist mode, CHO-S1PR2 cells, S1P at EC80, Ca2+ fluorescence; read-out: S1P2 EC50 (nM), S1P2 antagonist EC50. The class given is cell-based. The method, boiled down: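 CHO cells stably expressing human S1PR2, serum-starved 1 h, Fluo8-loaded; compound-evoked Ca2+ fluorescence read 3 min (agonist mode), then after 15 min S1P at EC80 added and read 3 min (antagonist mode). Max/baseline fluorescence ratios normalised to vehicle and S1P EC100 or EC50 controls; EC50 derived.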
(A change in cytosolic calcium serves as a functional read-out for many receptors and channels.)

Assay [5] addresses T3, human GPCR sphingosine 1-phosphate receptor 1 (Homo sapiens, UniProt P21453).
T3 construct: host or cells: CHO
Briefly: S1PR1 selectivity Ca2+ flux assay (antagonist readout). As to conditions: antagonist readout, CHO cells overexpressing human S1PR1 and Gq, S1P at EC80 (6 nM); read-out: S1P1 EC50 (nM), S1P1 antagonist EC50. The class given is cell-based. The method, boiled down: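 CHO cells stably overexpressing human S1PR1, starved 1 h in 0.1% FAF BSA medium, then Fluo 8 dye-loaded. Compound added, then after 15 min at 37 °C, S1P-evoked Ca2+ flux recorded. Maximal signal/background ratio normalized to controls as % inhibition; IC50 from four-parameter logistic fit.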

In assay [6] the target is T4, human GPCR sphingosine 1-phosphate receptor 5 (Homo sapiens, UniProt Q9H228).
T4 construct: host or cells: CHO
T4 sequence (Q9H228 whole entry): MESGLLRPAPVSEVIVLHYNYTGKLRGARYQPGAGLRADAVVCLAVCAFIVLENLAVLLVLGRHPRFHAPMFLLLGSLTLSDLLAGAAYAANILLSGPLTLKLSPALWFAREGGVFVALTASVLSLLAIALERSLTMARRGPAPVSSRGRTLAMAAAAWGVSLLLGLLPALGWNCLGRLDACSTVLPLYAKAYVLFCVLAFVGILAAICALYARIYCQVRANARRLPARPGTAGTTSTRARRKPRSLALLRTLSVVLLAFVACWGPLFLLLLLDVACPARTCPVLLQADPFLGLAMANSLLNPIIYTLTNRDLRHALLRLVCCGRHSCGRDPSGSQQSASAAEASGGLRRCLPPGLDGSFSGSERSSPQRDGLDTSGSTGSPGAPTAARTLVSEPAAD
Put plainly: S1PR5 selectivity Ca2+ flux assay (antagonist readout). The settings on record: CHO cells overexpressing human S1PR5 and Gq, agonist at EC80 (20 nM), read-out: S1P5 EC50 (nM), S1P5 antagonist EC50. The class given is cell-based. The method, boiled down: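 CHO cells stably coexpressing human S1PR5 and Gq were serum-starved, Fluo 8-loaded and preincubated 15 min at 37° C with compound. They were then stimulated at EC80 with an S1PR5-specific agonist, and calcium fluorescence was recorded for 3 min. Peak/baseline ratios were normalized to controls and fitted to a four-parameter IC50 equation.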

The term EC50 denotes the midpoint of the concentration-response curve.

Molecules are shown by their SMILES.

T1 sequence (O95136 whole entry): as the sequence (O95136 whole entry) above
T3 sequence (P21453 whole entry): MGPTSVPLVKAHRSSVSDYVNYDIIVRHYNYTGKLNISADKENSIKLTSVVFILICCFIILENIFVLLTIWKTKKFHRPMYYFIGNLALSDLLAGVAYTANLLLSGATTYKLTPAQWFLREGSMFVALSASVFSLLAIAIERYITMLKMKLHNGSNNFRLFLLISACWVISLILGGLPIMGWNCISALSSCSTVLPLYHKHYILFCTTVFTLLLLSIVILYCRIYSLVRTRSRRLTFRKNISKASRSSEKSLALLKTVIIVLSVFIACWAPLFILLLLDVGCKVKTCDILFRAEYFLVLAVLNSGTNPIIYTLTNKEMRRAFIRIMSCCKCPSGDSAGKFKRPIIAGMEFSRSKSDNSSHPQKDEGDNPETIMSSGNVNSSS

As to `O=c1c2ccccc2c(Cc2nc3cc(Cl)c(OC(F)(F)F)cc3[nH]2)nn1CC1CCNC1` (stereo not drawn) [Compound 57, 4-[[6-chloro-5-(trifluoromethoxy)-1H-benzimidazol-2-yl]methyl]-2-(pyrrolidin-3-ylmethyl)phthalazin-1-one], the EC50 in assay [1] is 457 nM; in assay [2], 501 nM; in assay [3], 552 nM; in assay [4], 163 nM; in assay [5] it was not below 19800 nM; in assay [6], 19800 nM.

For `O=c1c2ccccc2c(Cc2nc3cc(Cl)c(OC(F)(F)F)cc3[nH]2)nn1C1CCNC1` (stereo not drawn) [Compound 59, 4-[[6-chloro-5-(trifluoromethoxy)-1H-benzimidazol-2-yl]methyl]-2-pyrrolidin-3-yl-phthalazin-1-one], the EC50 was 42 nM in assay [1]; 180 nM in assay [2]; 98.8 nM in assay [3]; 94.4 nM in assay [4]; not below 19800 nM in assay [5]; 19800 nM in assay [6].

Turning to `N#Cc1cc2[nH]c(Cc3nn(C4CCNC4)c(=O)c4ccccc34)nc2cc1OCC(F)F` (stereo not drawn) [Compound 64, 6-(2,2-difluoroethoxy)-2-[(4-oxo-3-pyrrolidin-3-yl-phthalazin-1-yl)methyl]-3H-benzimidazole-5-carbonitrile], the EC50 is 131 nM in assay [1]; 33.5 nM in assay [2]; 25.6 nM in assay [3]; 137 nM in assay [4]; not below 19800 nM in assay [5]; 19800 nM in assay [6].

For `COCCOc1cc2nc(Cc3nn(C4CCNC4)c(=O)c4ccccc34)[nH]c2cc1C#N` (stereo not drawn) [Compound 65, 6-(2-methoxyethoxy)-2-[(4-oxo-3-pyrrolidin-3-yl-phthalazin-1-yl)methyl]-3H-benzimidazole-5-carbonitrile], the EC50 in assay [1] was 1030 nM; in assay [2] it was 91.1 nM; in assay [3], 108 nM; in assay [4] it was 2080 nM; in assay [5], not below 19800 nM; in assay [6], 19800 nM.

Take `COCCOc1cc2nc(Cc3nn(C4CCNC4)c(=O)c4ccccc34)[nH]c2cc1Cl` (stereo not drawn) [Compound 67, 4-[[6-chloro-5-(2-methoxyethoxy)-1H-benzimidazol-2-yl]methyl]-2-pyrrolidin-3-yl-phthalazin-1-one]: the EC50 in assay [1] is 64.9 nM; in assay [2], 19.2 nM; in assay [3], 9.07 nM; in assay [4], 37.4 nM; in assay [5] it was not below 19800 nM; in assay [6] it was 19800 nM.

In the case of `N#Cc1cc2[nH]c(Cc3nn(C4CNC4)c(=O)c4ccccc34)nc2cc1OCC(F)F` [Compound 68, 2-[[3-(azetidin-3-yl)-4-oxo-phthalazin-1-yl]methyl]-6-(2,2-difluoroethoxy)-3H-benzimidazole-5-carbonitrile], the EC50 in assay [1] was 275 nM; in assay [2], 123 nM; in assay [3], 76.7 nM; in assay [4] it was 547 nM; in assay [5] it was not below 19800 nM; in assay [6] it was 19800 nM.

As to `N#Cc1cc2[nH]c(Cc3nn(C4CN(CC(=O)O)C4)c(=O)c4ccccc34)nc2cc1OCC(F)F` [Compound 69, 2-[3-[4-[[6-cyano-5-(2,2-difluoroethoxy)-1H-benzimidazol-2-yl]-methyl]-1-oxo-phthalazin-2-yl]azetidin-1-yl]acetic acid], the EC50 in assay [1] was 272 nM; in assay [2], 96.3 nM; in assay [3] it was 109 nM; in assay [4], 238 nM; in assay [5] it was not below 19800 nM; in assay [6], 19800 nM.

Take `N#Cc1cc2[nH]c(Cc3nn(CC4CCCN4CC(=O)O)c(=O)c4ccccc34)nc2cc1OCC(F)F` (stereo not drawn) [Compound 70, 2-[2-[[4-[[6-cyano-5-(2,2-difluoroethoxy)-1H-benzimidazol-2-yl]methyl]-1-oxo-phthalazin-2-yl]methyl]pyrrolidin-1-yl]acetic acid]: the EC50 is 2100 nM in assay [1]; 443 nM in assay [2]; 251 nM in assay [3]; 836 nM in assay [4]; not below 19800 nM in assay [5]; 19800 nM in assay [6].

In the case of `N#Cc1cc2[nH]c(Cc3nn(C4CCN(CC(=O)O)C4)c(=O)c4ccccc34)nc2cc1OCC(F)F` (stereo not drawn) [Compound 71, 2-[3-[4-[[6-cyano-5-(2,2-difluoroethoxy)-1H-benzimidazol-2-yl]methyl]-1-oxo-phthalazin-2-yl]pyrrolidin-1-yl]acetic acid], the EC50 in assay [1] was 357 nM; in assay [2] it was 134 nM; in assay [3], 156 nM; in assay [4], 356 nM; in assay [5], not below 19800 nM; in assay [6], 19800 nM.

For `N#Cc1cc2nc(Cc3nn(CC(=O)O)c(=O)c4ccccc34)cn2cc1OCC1CC1` [Compound 79, 2-[4-[[7-cyano-6-(cyclopropylmethoxy)imidazo[1,2-a]pyridin-2-yl]methyl]-1-oxo-phthalazin-2-yl]acetic acid], the EC50 is 221 nM in assay [1]; 503 nM in assay [2]; 57.7 nM in assay [3]; 82.7 nM in assay [4]; not below 19800 nM in assay [5]; 19800 nM in assay [6].

For the compound `N#Cc1cc2[nH]c(Cn3cc(C(=O)O)c(=O)c4ccccc43)nc2cc1OCC(F)F` [Compound 80, 1-[[6-cyano-5-(2,2-difluoroethoxy)-1H-benzimidazol-2-yl]methyl]-4-oxo-quinoline-3-carboxylic acid], the EC50 was 619 nM in assay [1]; 122 nM in assay [2]; 46.8 nM in assay [3]; 42.3 nM in assay [4]; not below 19800 nM in assay [5]; 19800 nM in assay [6].

On to `CC(C(=O)O)n1nc(Cc2cn3cc(OCC4CC4)c(C#N)cc3n2)c2ccccc2c1=O` (stereo not drawn) [Compound 81, 2-[4-[[7-cyano-6-(cyclopropylmethoxy)imidazo[1,2-a]pyridin-2-yl]methyl]-1-oxo-phthalazin-2-yl]propanoic acid], for which the EC50 is 120 nM in assay [1]; 151 nM in assay [2]; 20 nM in assay [3]; 22.6 nM in assay [4]; not below 19800 nM in assay [5]; 19800 nM in assay [6].

Turning to `O=C(O)c1cn(Cc2cn3cc(OCC4CC4)c(Cl)cc3n2)c2ccccc2c1=O` [Compound 84, 1-[[7-chloro-6-(cyclopropylmethoxy)imidazo[1,2-a]pyridin-2-yl]methyl]-4-oxo-quinoline-3-carboxylic acid], the EC50 in assay [1] was 459 nM; in assay [2], 2460 nM; in assay [3] it was 198 nM; in assay [4], 41.9 nM; in assay [5], not below 19800 nM; in assay [6], 19800 nM.

As for `O=C(O)c1nn(Cc2cn3cc(OCC4CC4)c(Cl)cc3n2)c2ccccc2c1=O` [Compound 85, 1-[[7-chloro-6-(cyclopropylmethoxy)imidazo[1,2-a]pyridin-2-yl]methyl]-4-oxo-cinnoline-3-carboxylic acid], the EC50 was 619 nM in assay [1]; 2280 nM in assay [2]; 78.9 nM in assay [3]; 37.4 nM in assay [4]; not below 19800 nM in assay [5]; 19800 nM in assay [6].

Regarding `O=C(O)CN1CCC(n2nc(Cc3cn4cc(OCC5CC5)c(Cl)cc4n3)c3ccccc3c2=O)C1` (stereo not drawn) [Compound 87, 2-[3-[4-[[7-chloro-6-(cyclopropylmethoxy)imidazo[1,2-a]pyridin-2-yl]methyl]-1-oxo-phthalazin-2-yl]pyrrolidin-1-yl]acetic acid], the EC50 in assay [1] was 178 nM; in assay [2], 324 nM; in assay [3] it was 283 nM; in assay [4], 149 nM; in assay [5] it was not below 19800 nM; in assay [6] it was 19800 nM.

With `O=C(O)c1cn(Cc2nc3cc(OCC4CC4)c(Cl)cc3[nH]2)c2ccccc2c1=O` [Compound 90, 1-[[6-chloro-5-(cyclopropylmethoxy)-1H-benzimidazol-2-yl]methyl]-4-oxo-quinoline-3-carboxylic acid], the EC50 in assay [1] was 13.3 nM; in assay [2], 29.1 nM; in assay [3] it was 1.11 nM; in assay [4] it was 5.29 nM; in assay [5] it was 4580 nM; in assay [6] it was 6610 nM.

Values taken from US20210315893A1 (Galapagos NV, priority 2017, published 2021).
